Source: ChEMBL document CHEMBL1201862, “PubChem BioAssay data set” (2004)
Activity calls are given as the source filed them.

Key:
Assay type in all cases: functional
[1] = biological target: Glycogen synthase kinase-3 beta (Homo sapiens, UniProt P49841); experiment: GSK3beta kinase inhibitors, dose response, biochemical, microfluidics, dry powder samples, set 2 (AID 623989)
[2] = biological target: Glycogen synthase kinase-3 alpha (Homo sapiens, UniProt P49840); experiment: human GSK3 alpha kinase inhibition, dose response, selectivity assay for GSK3beta inhibitor project, biochemical, microfluidics, dry powder samples, set 2 (AID 623978)
[3] = HEK293T cytotoxicity, dose response, cytotoxicity control for miR-122 modulator project, cell-based, inhibitor set, cherry-pick, set 2 (AID 720697)
[4] = THP-1 cell cytotoxicity, cytotoxicity control, set 5 (AID 588443)
[5] = HepG2 cell cytotoxicity, cytotoxicity control, set 5 (AID 588441); conditions: Mycobacterium tuberculosis
[6] = Vero cell cytotoxicity, dose response, cytotoxicity control for M. tuberculosis inhibitor project, purified and synthesized compounds, set 6 (AID 588445); conditions: Mycobacterium tuberculosis
[7] = A High Throughput Confirmatory Assay used to Identify Novel Compounds that Inhibit Mycobacterium Tuberculosis in the absence of Glycerol using Purified and Synthesized Compounds (3).
[8] = biological target: Cell division cycle 7-related protein kinase (Homo sapiens, UniProt O00311);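 also: value obtained from a kinome-wide kinase panel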
Wee1-like protein kinase = Wee1-like protein kinase (Homo sapiens, UniProt P30291); experiment: Navigating the Kinome. Panel member name: WEE1
[9] = biological target: Cyclin-dependent kinase 19 (Homo sapiens, UniProt Q9BWU1); experiment: Navigating the Kinome. Panel member name: CDC2L6
SRSF protein kinase 1 = SRSF protein kinase 1 (Homo sapiens, UniProt Q96SB4);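 also: measured as one member of a kinome-wide kinase profiling panel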
[10] = biological target: Serine/threonine-protein kinase pim-1 (Homo sapiens, UniProt P11309)
[11] = biological target: MAP kinase-activated protein kinase 5 (Homo sapiens, UniProt Q8IW41);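 also: measured as one member of a kinome panel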
[12] = biological target: Protein-tyrosine kinase 2-beta (Homo sapiens, UniProt Q14289)
[13] = biological target: Dual specificity protein kinase CLK4 (Homo sapiens, UniProt Q9HAZ1)
[14] = biological target: Tyrosine-protein kinase receptor UFO (Homo sapiens, UniProt P30530)
Aurora kinase A = Aurora kinase A (Homo sapiens, UniProt O14965);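 also: value from the Navigating the Kinome kinase panel profiling, panel entry STK6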
[15] = biological target: Vascular endothelial growth factor receptor 2 (Homo sapiens, UniProt P35968)
Aurora kinase B = Aurora kinase B (Homo sapiens, UniProt Q96GD4)
[16] = biological target: DNA dC->dU-editing enzyme APOBEC-3A (Homo sapiens, UniProt P31941); experiment: SAR analysis of small molecule inhibitors of APOBEC3A DNA Deaminase via a fluorescence-based single-stranded DNA deaminase assay - Set 2.; conditions: read-out: IC50_Mean
[17] = biological target: DNA dC->dU-editing enzyme APOBEC-3G (Homo sapiens, UniProt Q9HC16); experiment: SAR analysis of small molecule inhibitors of APOBEC3G DNA Deaminase via a fluorescence-based single-stranded DNA deaminase assay - Set 2.; conditions: read-out: IC50_Mean
[18] = biological target: Sphingosine 1-phosphate receptor 2 (Homo sapiens, UniProt O95136); experiment: Late-stage fluorescence-based dose-response cell-based counterscreen assay to identify agonists of the Sphingosine 1-Phosphate Receptor 3 (S1P3): Sphingosine 1-Phosphate Receptor 2 (S1P2) agonist assay.
[19] = biological target: T1, Sphingosine 1-phosphate receptor 4 (Homo sapiens, UniProt O95977); experiment: Late-stage fluorescence-based dose-response cell-based counterscreen assay to identify agonists of the Sphingosine 1-Phosphate Receptor 3 (S1P3): Sphingosine 1-Phosphate Receptor 4 (S1P4) agonist assay.
T1 sequence (O95977 whole entry): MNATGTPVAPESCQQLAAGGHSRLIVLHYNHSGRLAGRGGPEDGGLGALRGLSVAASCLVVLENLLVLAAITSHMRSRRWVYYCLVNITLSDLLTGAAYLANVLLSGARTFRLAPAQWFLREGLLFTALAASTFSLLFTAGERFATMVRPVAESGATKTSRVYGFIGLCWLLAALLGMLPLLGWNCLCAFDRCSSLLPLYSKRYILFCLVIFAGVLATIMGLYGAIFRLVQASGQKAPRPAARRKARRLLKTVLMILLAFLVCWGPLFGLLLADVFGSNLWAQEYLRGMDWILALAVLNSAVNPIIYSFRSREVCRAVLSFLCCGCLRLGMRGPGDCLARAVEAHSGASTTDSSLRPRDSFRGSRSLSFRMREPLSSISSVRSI

[20] = biological target: Serine/threonine-protein kinase pim-3 (Homo sapiens, UniProt Q86V86);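 also: value obtained as one member of a broad kinase panel profiling effort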
[21] = biological target: Melanin-concentrating hormone receptor 1 (Homo sapiens, UniProt Q99705); experiment: Late-stage fluorescence-based counterscreen for antagonists of the G-protein coupled receptor 7 (GPR7): cell-based dose response assay to identify antagonists of the melanin-concentrating hormone receptor 1 (MCHR1) Set 6.
[22] = biological target: T2, Neuropeptides B/W receptor type 1 (Homo sapiens, UniProt P48145); experiment: GPR7 antagonist potency, late-stage follow-up, cell-based, fluorescence, dose response, set 6 (AID 588583)
T2 sequence (P48145 whole entry): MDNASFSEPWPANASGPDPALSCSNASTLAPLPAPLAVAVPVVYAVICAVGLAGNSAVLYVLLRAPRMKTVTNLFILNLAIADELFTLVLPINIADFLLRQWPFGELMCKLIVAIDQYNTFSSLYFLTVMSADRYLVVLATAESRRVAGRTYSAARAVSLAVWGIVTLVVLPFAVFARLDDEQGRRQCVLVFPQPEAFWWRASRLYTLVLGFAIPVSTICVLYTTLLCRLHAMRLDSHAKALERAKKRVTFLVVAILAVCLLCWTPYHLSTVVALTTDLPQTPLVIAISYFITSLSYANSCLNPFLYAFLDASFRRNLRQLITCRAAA

[23] = biological target: Ribosomal protein S6 kinase alpha-3 (Homo sapiens, UniProt P51812);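 also: measured within a kinome-wide profiling panel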
[24] = biological target: Dual specificity protein kinase CLK2 (Homo sapiens, UniProt P49760)
[25] = biological target: Dual specificity mitogen-activated protein kinase kinase 1 (Homo sapiens, UniProt Q02750); experiment: Navigating the Kinome. Panel member name: MAP2K1
[26] = biological target: Tyrosine-protein kinase JAK2 (Homo sapiens, UniProt O60674);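 also: JAK2 tested as one member of a kinase panel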
[27] = biological target: 5'-AMP-activated protein kinase catalytic subunit alpha-1 (Homo sapiens, UniProt Q13131)
[28] = biological target: ALK tyrosine kinase receptor (Homo sapiens, UniProt Q9UM73);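 also: ALK tested as one member of a kinase panel screen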
[29] = biological target: Proto-oncogene tyrosine-protein kinase receptor Ret (Homo sapiens, UniProt P07949);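 also: measured within a kinome-wide profiling panel, RET as the panel member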
[30] = biological target: Tyrosine-protein kinase receptor TYRO3 (Homo sapiens, UniProt Q06418);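 also: TYRO3 value obtained as one member of a kinome-wide profiling panel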
Activin receptor type-1 = Activin receptor type-1 (Homo sapiens, UniProt Q04771); experiment: Navigating the Kinome. Panel member name: ACVR1
[31] = biological target: Mast/stem cell growth factor receptor Kit (Homo sapiens, UniProt P10721);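 also: KIT entry within a kinase panel assay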
[32] = biological target: Fibroblast growth factor receptor 1 (Homo sapiens, UniProt P11362)
[33] = biological target: Casein kinase I isoform alpha (Homo sapiens, UniProt P48729)
[34] = biological target: Tyrosine-protein kinase JAK3 (Homo sapiens, UniProt P52333)
[35] = biological target: Serine/threonine-protein kinase TAO1 (Homo sapiens, UniProt Q7L7X3)
[36] = biological target: MAP/microtubule affinity-regulating kinase 3 (Homo sapiens, UniProt P27448);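 also: MARK3 affinity measured as one member of a kinome panel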
Activated CDC42 kinase 1 = Activated CDC42 kinase 1 (Homo sapiens, UniProt Q07912); experiment: Navigating the Kinome. Panel member name: ACK1
[37] = biological target: G protein-coupled receptor kinase 5 (Homo sapiens, UniProt P34947); experiment: Navigating the Kinome. Panel member name: GPRK5
[38] = biological target: Dual specificity tyrosine-phosphorylation-regulated kinase 1B (Homo sapiens, UniProt Q9Y463); experiment: Navigating the Kinome. Panel member name: DYRK1B
[39] = biological target: cAMP-dependent protein kinase catalytic subunit PRKX (Homo sapiens, UniProt P51817)
[40] = biological target: Leucine-rich repeat serine/threonine-protein kinase 2 (Homo sapiens, UniProt Q5S007);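 also: value from a broad kinome-wide panel profiling study in which LRRK2 was one of the kinases tested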
[41] = biological target: Rho-associated protein kinase 1 (Homo sapiens, UniProt Q13464);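 also: measured within a broad kinome-wide panel profiling many kinases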
[42] = biological target: Cyclin-dependent kinase 8 (Homo sapiens, UniProt P49336); experiment: Navigating the Kinome. Panel member name: CDK8
[43] = biological target: Vascular endothelial growth factor receptor 1 (Homo sapiens, UniProt P17948);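 also: measured within a kinome-wide profiling panel, FLT1 as the panel member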
[44] = biological target: Mitogen-activated protein kinase kinase kinase kinase 4 (Homo sapiens, UniProt O95819)
[45] = biological target: Macrophage-stimulating protein receptor (Homo sapiens, UniProt Q04912); experiment: Navigating the Kinome. Panel member name: MST1R
[46] = biological target: Dual specificity tyrosine-phosphorylation-regulated kinase 1A (Homo sapiens, UniProt Q13627);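 also: measured against DYRK1A as one member of a broad kinome profiling panel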
[47] = biological target: Inhibitor of nuclear factor kappa-B kinase subunit epsilon (Homo sapiens, UniProt Q14164); experiment: Navigating the Kinome. Panel member name: IKBKE
[48] = biological target: Mitogen-activated protein kinase 10 (Homo sapiens, UniProt P53779); experiment: Navigating the Kinome. Panel member name: MAPK10
[49] = biological target: Leukocyte tyrosine kinase receptor (Homo sapiens, UniProt P29376); experiment: Navigating the Kinome. Panel member name: LTK

Sequence of Serine/threonine-protein kinase pim-1 (P11309 whole entry): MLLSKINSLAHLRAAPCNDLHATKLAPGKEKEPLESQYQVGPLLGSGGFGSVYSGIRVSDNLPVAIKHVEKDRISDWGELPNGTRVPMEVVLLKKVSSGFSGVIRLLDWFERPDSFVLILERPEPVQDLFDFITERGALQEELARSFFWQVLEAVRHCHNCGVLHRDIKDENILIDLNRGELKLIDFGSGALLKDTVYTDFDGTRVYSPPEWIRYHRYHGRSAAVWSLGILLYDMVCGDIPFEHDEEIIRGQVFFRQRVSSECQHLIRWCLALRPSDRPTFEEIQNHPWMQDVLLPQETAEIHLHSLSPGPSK
Sequence of Vascular endothelial growth factor receptor 2 (P35968 whole entry): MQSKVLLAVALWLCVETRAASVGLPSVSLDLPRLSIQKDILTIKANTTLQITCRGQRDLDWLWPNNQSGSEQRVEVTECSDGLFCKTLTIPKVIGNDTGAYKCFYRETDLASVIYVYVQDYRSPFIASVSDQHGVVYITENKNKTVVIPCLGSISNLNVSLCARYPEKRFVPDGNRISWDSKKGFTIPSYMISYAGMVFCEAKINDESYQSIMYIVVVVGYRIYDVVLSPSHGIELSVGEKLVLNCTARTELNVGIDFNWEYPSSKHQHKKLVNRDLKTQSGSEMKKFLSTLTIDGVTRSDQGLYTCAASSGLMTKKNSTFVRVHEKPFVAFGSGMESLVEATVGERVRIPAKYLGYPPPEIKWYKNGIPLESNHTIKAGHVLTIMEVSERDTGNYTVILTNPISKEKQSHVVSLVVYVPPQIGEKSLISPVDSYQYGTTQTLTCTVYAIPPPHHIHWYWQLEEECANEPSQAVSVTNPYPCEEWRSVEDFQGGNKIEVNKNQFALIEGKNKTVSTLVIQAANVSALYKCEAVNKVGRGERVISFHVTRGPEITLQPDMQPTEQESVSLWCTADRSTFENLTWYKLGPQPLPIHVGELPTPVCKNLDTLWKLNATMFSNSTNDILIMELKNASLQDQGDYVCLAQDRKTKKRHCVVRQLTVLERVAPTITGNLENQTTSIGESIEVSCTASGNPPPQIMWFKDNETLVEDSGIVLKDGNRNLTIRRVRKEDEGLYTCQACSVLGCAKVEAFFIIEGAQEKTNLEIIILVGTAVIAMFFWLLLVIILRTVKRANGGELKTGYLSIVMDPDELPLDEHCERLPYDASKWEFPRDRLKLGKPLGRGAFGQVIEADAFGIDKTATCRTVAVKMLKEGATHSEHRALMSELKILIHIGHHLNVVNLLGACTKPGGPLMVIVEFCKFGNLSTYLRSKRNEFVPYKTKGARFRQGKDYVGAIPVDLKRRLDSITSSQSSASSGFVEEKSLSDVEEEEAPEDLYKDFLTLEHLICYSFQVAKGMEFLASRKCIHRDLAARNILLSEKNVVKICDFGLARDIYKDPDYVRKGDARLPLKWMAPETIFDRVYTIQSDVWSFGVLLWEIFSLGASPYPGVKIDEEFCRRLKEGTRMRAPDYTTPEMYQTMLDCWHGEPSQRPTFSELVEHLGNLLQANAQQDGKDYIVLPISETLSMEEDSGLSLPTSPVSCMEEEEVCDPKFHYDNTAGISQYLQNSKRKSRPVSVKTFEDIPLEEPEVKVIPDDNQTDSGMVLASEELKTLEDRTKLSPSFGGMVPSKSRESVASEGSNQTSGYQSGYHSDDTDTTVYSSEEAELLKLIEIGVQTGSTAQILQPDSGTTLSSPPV
Sequence of Cell division cycle 7-related protein kinase (O00311 whole entry): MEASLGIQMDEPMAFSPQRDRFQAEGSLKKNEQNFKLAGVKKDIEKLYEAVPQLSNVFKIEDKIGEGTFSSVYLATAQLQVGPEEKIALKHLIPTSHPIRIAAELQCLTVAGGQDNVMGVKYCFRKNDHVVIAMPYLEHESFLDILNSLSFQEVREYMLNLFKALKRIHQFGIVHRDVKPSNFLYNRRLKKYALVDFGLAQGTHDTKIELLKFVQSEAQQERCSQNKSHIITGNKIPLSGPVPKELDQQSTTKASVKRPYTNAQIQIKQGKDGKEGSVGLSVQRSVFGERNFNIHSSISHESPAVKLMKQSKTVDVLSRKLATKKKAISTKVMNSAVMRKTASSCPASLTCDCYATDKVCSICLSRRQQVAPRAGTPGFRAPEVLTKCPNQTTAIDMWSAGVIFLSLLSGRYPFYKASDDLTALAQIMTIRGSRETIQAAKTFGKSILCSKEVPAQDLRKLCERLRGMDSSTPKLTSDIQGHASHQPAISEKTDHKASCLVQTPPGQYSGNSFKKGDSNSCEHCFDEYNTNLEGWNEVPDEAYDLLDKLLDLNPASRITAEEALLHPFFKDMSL
Sequence of Dual specificity protein kinase CLK4 (Q9HAZ1 whole entry): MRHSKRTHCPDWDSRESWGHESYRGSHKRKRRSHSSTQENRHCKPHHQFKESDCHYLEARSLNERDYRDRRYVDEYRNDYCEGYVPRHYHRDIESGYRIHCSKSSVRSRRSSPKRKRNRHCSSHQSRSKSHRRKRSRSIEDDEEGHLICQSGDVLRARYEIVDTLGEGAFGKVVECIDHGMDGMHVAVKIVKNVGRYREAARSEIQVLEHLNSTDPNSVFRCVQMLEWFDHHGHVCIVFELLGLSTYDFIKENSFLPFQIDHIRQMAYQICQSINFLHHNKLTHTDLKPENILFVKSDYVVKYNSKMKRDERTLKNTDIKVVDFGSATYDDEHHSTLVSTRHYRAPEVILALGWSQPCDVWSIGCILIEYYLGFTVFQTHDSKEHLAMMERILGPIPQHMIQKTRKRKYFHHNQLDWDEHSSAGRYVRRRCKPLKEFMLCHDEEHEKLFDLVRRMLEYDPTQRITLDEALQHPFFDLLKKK
Sequence of Aurora kinase B (Q96GD4 whole entry): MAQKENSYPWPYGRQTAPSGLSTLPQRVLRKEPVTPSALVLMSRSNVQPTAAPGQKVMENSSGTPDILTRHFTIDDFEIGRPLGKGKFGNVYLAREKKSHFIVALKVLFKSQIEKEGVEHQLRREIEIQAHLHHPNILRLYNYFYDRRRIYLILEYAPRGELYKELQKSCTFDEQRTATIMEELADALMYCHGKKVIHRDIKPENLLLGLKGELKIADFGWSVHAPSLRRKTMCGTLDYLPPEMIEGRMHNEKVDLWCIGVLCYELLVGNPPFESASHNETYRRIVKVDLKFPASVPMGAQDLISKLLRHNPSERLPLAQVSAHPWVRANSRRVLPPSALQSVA
Sequence of Cyclin-dependent kinase 19 (Q9BWU1 whole entry): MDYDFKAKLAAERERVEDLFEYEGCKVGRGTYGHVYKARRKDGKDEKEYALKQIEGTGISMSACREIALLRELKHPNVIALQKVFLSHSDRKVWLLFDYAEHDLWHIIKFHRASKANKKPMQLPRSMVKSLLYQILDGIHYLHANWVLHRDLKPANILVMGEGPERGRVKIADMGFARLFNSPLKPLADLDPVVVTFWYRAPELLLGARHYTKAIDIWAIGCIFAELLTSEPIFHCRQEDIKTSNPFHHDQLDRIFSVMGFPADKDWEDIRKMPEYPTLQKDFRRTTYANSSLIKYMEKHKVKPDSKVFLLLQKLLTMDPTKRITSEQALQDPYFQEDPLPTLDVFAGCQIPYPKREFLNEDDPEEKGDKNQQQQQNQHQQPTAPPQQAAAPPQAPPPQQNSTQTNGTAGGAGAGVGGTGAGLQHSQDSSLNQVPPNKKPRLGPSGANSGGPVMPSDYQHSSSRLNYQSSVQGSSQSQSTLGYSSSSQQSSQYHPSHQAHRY
Sequence of Protein-tyrosine kinase 2-beta (Q14289 whole entry): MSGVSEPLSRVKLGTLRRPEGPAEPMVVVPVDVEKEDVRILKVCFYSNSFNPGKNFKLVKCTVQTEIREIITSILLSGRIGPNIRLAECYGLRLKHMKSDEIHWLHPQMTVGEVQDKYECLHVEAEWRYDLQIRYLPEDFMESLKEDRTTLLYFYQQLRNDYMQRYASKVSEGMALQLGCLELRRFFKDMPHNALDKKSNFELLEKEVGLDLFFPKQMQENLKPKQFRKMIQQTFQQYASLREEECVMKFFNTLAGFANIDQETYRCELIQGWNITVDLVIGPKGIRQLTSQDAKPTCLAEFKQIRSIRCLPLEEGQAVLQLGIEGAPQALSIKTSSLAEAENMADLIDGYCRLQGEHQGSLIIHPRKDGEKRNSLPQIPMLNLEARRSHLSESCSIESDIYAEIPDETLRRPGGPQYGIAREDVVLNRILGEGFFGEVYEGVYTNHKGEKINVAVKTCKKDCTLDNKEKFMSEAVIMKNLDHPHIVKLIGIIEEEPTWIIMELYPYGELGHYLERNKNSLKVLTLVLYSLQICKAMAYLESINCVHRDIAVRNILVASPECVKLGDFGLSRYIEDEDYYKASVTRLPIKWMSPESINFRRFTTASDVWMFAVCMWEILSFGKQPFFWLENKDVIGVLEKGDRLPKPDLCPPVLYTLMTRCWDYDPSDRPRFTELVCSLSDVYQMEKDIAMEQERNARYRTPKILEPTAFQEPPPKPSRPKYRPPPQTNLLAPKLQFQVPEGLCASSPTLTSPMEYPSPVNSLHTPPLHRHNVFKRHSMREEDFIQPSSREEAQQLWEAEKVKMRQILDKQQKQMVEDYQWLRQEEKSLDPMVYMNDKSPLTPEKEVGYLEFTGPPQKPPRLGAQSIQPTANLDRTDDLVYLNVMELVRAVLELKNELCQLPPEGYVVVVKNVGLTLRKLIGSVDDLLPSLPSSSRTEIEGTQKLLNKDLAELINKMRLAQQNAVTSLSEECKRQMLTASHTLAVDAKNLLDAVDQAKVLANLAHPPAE
Sequence of cAMP-dependent protein kinase catalytic subunit PRKX (P51817 whole entry): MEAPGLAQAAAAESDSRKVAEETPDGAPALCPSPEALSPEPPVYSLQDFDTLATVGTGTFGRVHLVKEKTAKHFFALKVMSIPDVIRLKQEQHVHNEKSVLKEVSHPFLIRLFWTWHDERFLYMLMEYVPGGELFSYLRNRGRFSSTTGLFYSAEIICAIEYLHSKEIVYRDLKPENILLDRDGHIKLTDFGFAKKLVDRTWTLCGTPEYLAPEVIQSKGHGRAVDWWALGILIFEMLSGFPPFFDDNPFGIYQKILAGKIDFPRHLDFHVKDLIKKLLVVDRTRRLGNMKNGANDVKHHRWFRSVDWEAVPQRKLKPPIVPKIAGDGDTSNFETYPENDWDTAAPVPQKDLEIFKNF

Clc1ccc(CSc2nnc(-c3ccncc3)o2)c(Cl)c1
AC50 [1]: 1.83 µM (active)
AC50 [2]: 24 µM (active)
AC50 [3]: 8.31 µM (active)

Cc1cccc(N2CCN(C(=O)c3ccc(CNc4c(N5CCC(C)CC5)c(=O)c4=O)cc3)CC2)c1C
CC50 [4]: 8.21 µM (active)
CC50 [5]: > 15 µM (active)
CC50 [6]: > 30 µM (active)
IC50 [7]: > 25 µM (active)

c1cc(NC2CCCCC2)nc(Nc2ccc3[nH]ncc3c2)n1
Ki [8]: 0.2 µM (active)
Ki (Wee1-like protein kinase): > 3.16 µM (inactive)

Oc1cncc2nc(-c3ccncc3)ccc12
Ki [8]: 0.501 µM (active)
Ki [9]: > 100 µM (inactive)

O=C1CC(c2ccc(Cl)cc2)Cc2[nH]c3cc(Cl)ccc3c(=O)c21 (stereo unspecified)
Ki (SRSF protein kinase 1): 6.31 µM (active)
Ki [10]: 5.01 µM (active)
Ki [11]: 1.26 µM (active)
Ki [12]: 1.58 µM (active)
Ki [13]: 6.31 µM (active)
Ki [14]: 1.58 µM (active)

O=C(CCCCCCC(=NO)c1ncco1)Nc1cccc(-c2ccccc2)c1
Ki (Aurora kinase A): > 2 µM (inactive)
Ki [15]: > 5.01 µM (inactive)
Ki (Aurora kinase B): 0.0251 µM (active)

CCCn1c(=O)c2ccccc2n2c(SC)nnc12
IC50 [16]: > 99 µM (inactive)
IC50 [17]: > 99 µM (inactive)

CC(C)Cc1cc(C(=O)N(C2CCCCC2)C2CCCCC2)no1
EC50 [18]: > 50 µM (inactive)
EC50 [19]: > 50 µM (inactive)

N=C(N)Cc1cccc(-c2nc3ccccc3[nH]2)c1
Ki [10]: 5.01 µM (active)
Ki [20]: 3.98 µM (active)
Ki (Aurora kinase B): 2.51 µM (active)

N#CC(c1ccc2c(c1)OCO2)c1c(Cl)cnn(Cc2cccc3ccccc23)c1=O (stereo unspecified)
IC50 [21]: 0.41 µM (active)
IC50 [22]: 0.41 µM (active)

O=C(Nc1cccc(C(F)(F)F)n1)Nc1ccnc2ccc(F)cc12
Ki [23]: > 3.98 µM (inactive)
Ki [24]: 3.16 µM (active)
Ki [25]: > 3.16 µM (inactive)
Ki [26]: > 2.51 µM (inactive)
Ki [27]: > 3.16 µM (inactive)
Ki [28]: > 6.31 µM (inactive)
Ki [29]: > 3.16 µM (inactive)
Ki [30]: > 3.16 µM (inactive)
Ki (Activin receptor type-1): 1.58 µM (active)
Ki [10]: > 6.31 µM (inactive)
Ki [31]: > 6.31 µM (inactive)
Ki [32]: > 3.98 µM (inactive)
Ki [33]: > 3.98 µM (inactive)
Ki [34]: > 5.01 µM (inactive)
Ki [35]: > 2.51 µM (inactive)
Ki [36]: > 5.01 µM (inactive)
Ki (Activated CDC42 kinase 1): > 3.98 µM (inactive)
Ki [15]: > 2.51 µM (inactive)
Ki [37]: > 3.98 µM (inactive)
Ki [38]: 2 µM (active)
Ki [39]: > 3.16 µM (inactive)
Ki [40]: > 2.51 µM (inactive)
Ki [41]: > 3.98 µM (inactive)
Ki [42]: 0.0794 µM (active)
Ki [43]: > 3.98 µM (inactive)
Ki [13]: 0.1 µM (active)
Ki [44]: > 5.01 µM (inactive)
Ki [45]: > 3.98 µM (inactive)
Ki [46]: > 2 µM (inactive)
Ki [47]: > 3.16 µM (inactive)
Ki [48]: > 3.16 µM (inactive)
Ki [49]: > 3.16 µM (inactive)
